Values after ≈ are worked out from the molar mass of the structure shown. Bridge positions count the residues as written; N and C are the ends. Square brackets hold non-standard residues; d marks the D form. Triazole bridges read from a SMILES are 1,4-linked. Peptide text beside a SMILES is read from it. dLys(N3) = [N-]=[N+]=NCCCC[C@@H](N)C(=O)O; Lys(N3) = [N-]=[N+]=NCCCC[C@H](N)C(=O)O; dPra = C#CC[C@@H](N)C(=O)O; Pra = C#CC[C@H](N)C(=O)O
Tests used:
A. baumannii ATCC 19606 = format: cell-based, Acinetobacter baumannii
Procedure: (§1) The antimicrobial activity of peptides 9–26 was assessed against a range of reference bacterial strains such as S. aureus ATCC 25923, Staphylococcus epidermidis ATCC 12228, Bacillus megaterium Bm11, E. coli ATCC 25922, P. aeruginosa ATCC 27853, and A. baumannii ATCC 19606 by the broth microdilution assay to determine the minimal growth inhibitory concentration (MIC, Table 1).[59] First, we evaluated the effects produced by the lactam bridge between Lys and Glu residues placed at different positions along the peptide sequence of reference 9. […] When the i,i+7 cyclization strategy was applied (20–23), a dramatic decrease of bacterial inhibition activity was observed. Specifically, the peptides 20, 22, and 23 only affected the microbial growth of the Gram-positive B. megaterium Bm11, at 12.5 μM. […] Peptide 25, which differs from 9 by the presence of an olefin bridge rather than lactam one, dramatically lost the activity (MIC > 100 μM) vs both Gram-positive and Gram-negative strains.
(§2) The determination of MICs was conducted as previously reported.[61] Aliquots of 50 μL of bacterial culture appropriately diluted were added to each well of a 96-well plate to reach a final cell density of 1 × 10^6 CFU/mL and a final peptide concentration ranging from 100 to 0.78 μM (final volume 100 μL).

E. coli ATCC 25922 = format: cell-based, Escherichia coli
Procedure: as §1, §2

S. aureus ATCC 25923 = format: cell-based, Staphylococcus aureus
Procedure: as §1, §2

[1] = test system: S. epidermidis ATCC 12228; format: cell-based, Staphylococcus epidermidis
Procedure: as §1, §2

B. megaterium Bm11 = format: cell-based, Bacillus megaterium
Procedure: as §1, §2

P. aeruginosa ATCC 27853 = format: cell-based, Pseudomonas aeruginosa
Procedure: as §1, §2

circular dichroism = details: water; pH ns; 25 °C; 50 uM

Row | SMILES | MIC A. baumannii ATCC 19606 (A. baumannii ATCC 19606) [µM] | MIC E. coli ATCC 25922 (E. coli ATCC 25922) [µM] | MIC S. aureus ATCC 25923 (S. aureus ATCC 25923) [µM] | MIC S. epidermidis ATCC 12228 [1] [µM] | MIC B. megaterium Bm11 (B. megaterium Bm11) [µM] | MIC P. aeruginosa ATCC 27853 (P. aeruginosa ATCC 27853) [µM] | helicity (circular dichroism) [%]
1 | CC[C@H](C)[C@@H]1NC(=O)[C@H](CCCNC(=N)N)NC(=O)CNC(=O)[C@H](NC(=O)[C@H](Cc2ccccc2)NC(=O)[C@H](CCCCN)NC(=O)[C@H](CO)NC(=O)[C@H](Cc2ccccc2)NC(=O)[C@H](Cc2c[nH]c3ccccc23)NC(=O)[C@@H]2CCCN2C(=O)[C@@H](NC(=O)[C@@H](N)Cc2ccccc2)C(C)C)CCCCNC(=O)CC[C@@H](C(N)=O)NC1=O [compound 10] | >100 | >100 | >100 | >100 | 50 (≈ 81.1 µg/mL) | >100 | –
2 | CC[C@H](C)[C@@H]1NC(=O)[C@H](CCCNC(=N)N)NC(=O)CNC(=O)[C@@H](CC(C)C)NC(=O)[C@H](Cc2ccccc2)NC(=O)[C@H](CCCCN)NC(=O)[C@@H](NC(=O)[C@H](Cc2ccccc2)NC(=O)[C@H](Cc2c[nH]c3ccccc23)NC(=O)[C@@H]2CCCN2C(=O)[C@@H](NC(=O)[C@@H](N)Cc2ccccc2)C(C)C)Cc2cn(nn2)CCCC[C@@H](C(N)=O)NC1=O [compound 22] (H-FVPWF[Pra]KF[dL]GRI[Lys(N3)]-NH2; triazole 6-13) | 100 (≈ 166 µg/mL) | >100 | >100 | >100 | 12.5 (≈ 20.7 µg/mL) | >100 | –
3 | CC[C@H](C)[C@H](NC(=O)[C@H](CCCNC(=N)N)NC(=O)[C@@H]1CSSC[C@H](NC(=O)[C@H](Cc2ccccc2)NC(=O)[C@H](Cc2c[nH]c3ccccc23)NC(=O)[C@@H]2CCCN2C(=O)[C@@H](NC(=O)[C@@H](N)Cc2ccccc2)C(C)C)C(=O)N[C@@H](CCCCN)C(=O)N[C@@H](Cc2ccccc2)C(=O)N[C@H](CC(C)C)C(=O)N1)C(=O)N[C@@H](CC(C)C)C(N)=O [compound 26] (H-FVPWFCKF[dL]CRIL-NH2; disulfide 6-10) | 25 (≈ 41.7 µg/mL) | 25 (≈ 41.7 µg/mL) | 100 (≈ 167 µg/mL) | 6.25 (≈ 10.4 µg/mL) | 1.56 (≈ 2.6 µg/mL) | >100 | 8
4 | CC[C@H](C)[C@H](NC(=O)[C@H](CCCNC(=N)N)NC(=O)CNC(=O)[C@H]1CCC(=O)NCCCC[C@H](NC(=O)[C@H](Cc2c[nH]c3ccccc23)NC(=O)[C@@H]2CCCN2C(=O)[C@@H](NC(=O)[C@@H](N)Cc2ccccc2)C(C)C)C(=O)N[C@@H](CO)C(=O)N[C@@H](CCCCN)C(=O)N[C@@H](Cc2ccccc2)C(=O)N1)C(=O)N[C@@H](CC(C)C)C(N)=O [compound 13] (H-FVPWKSKF[dE]GRIL-NH2; lactam 5-9) | >100 | >100 | >100 | >100 | 100 (≈ 159 µg/mL) | >100 | –
5 | CC(C)C[C@H](NC(=O)[C@@H]1CCCCn2cc(nn2)C[C@H](NC(=O)[C@H](CCCCN)NC(=O)[C@H](CO)NC(=O)[C@H](Cc2ccccc2)NC(=O)[C@H](Cc2c[nH]c3ccccc23)NC(=O)[C@@H]2CCCN2C(=O)[C@@H](NC(=O)[C@@H](N)Cc2ccccc2)C(C)C)C(=O)N[C@H](CC(C)C)C(=O)NCC(=O)N[C@@H](CCCNC(=N)N)C(=O)N1)C(N)=O [compound 16] (H-FVPWFSK[Pra][dL]GR[Lys(N3)]L-NH2; triazole 8-12) | 25 (≈ 39.9 µg/mL) | 50 (≈ 79.9 µg/mL) | >100 | >100 | 25 (≈ 39.9 µg/mL) | >100 | –
6 | CC[C@H](C)[C@@H]1NC(=O)[C@H](CCCNC(=N)N)NC(=O)CNC(=O)[C@H](NC(=O)[C@H](Cc2ccccc2)NC(=O)[C@H](CCCCN)NC(=O)[C@H](CO)NC(=O)[C@H](Cc2ccccc2)NC(=O)[C@H](Cc2c[nH]c3ccccc23)NC(=O)[C@@H]2CCCN2C(=O)[C@@H](NC(=O)[C@@H](N)Cc2ccccc2)C(C)C)Cc2cn(nn2)CCCC[C@@H](C(N)=O)NC1=O [compound 15] (H-FVPWFSKF[dPra]GRI[Lys(N3)]-NH2; triazole 9-13) | 100 (≈ 163 µg/mL) | >100 | >100 | >100 | 25 (≈ 40.8 µg/mL) | >100 | –
7 | CC[C@H](C)[C@H](NC(=O)[C@H](CCCNC(=N)N)NC(=O)CNC(=O)[C@H]1CCCCn2cc(nn2)C[C@H](NC(=O)[C@H](Cc2c[nH]c3ccccc23)NC(=O)[C@@H]2CCCN2C(=O)[C@@H](NC(=O)[C@@H](N)Cc2ccccc2)C(C)C)C(=O)N[C@@H](CO)C(=O)N[C@@H](CCCCN)C(=O)N[C@@H](Cc2ccccc2)C(=O)N1)C(=O)N[C@@H](CC(C)C)C(N)=O [compound 18] (H-FVPW[Pra]SKF[dLys(N3)]GRIL-NH2; triazole 5-9) | 100 (≈ 160 µg/mL) | 100 (≈ 160 µg/mL) | >100 | >100 | 6.25 (≈ 9.99 µg/mL) | >100 | –
8 | CC[C@H](C)[C@@H]1NC(=O)[C@H](CCCNC(=N)N)NC(=O)CNC(=O)[C@@H](CC(C)C)NC(=O)[C@H](Cc2ccccc2)NC(=O)[C@H](CCCCN)NC(=O)[C@@H](NC(=O)[C@H](Cc2ccccc2)NC(=O)[C@H](Cc2c[nH]c3ccccc23)NC(=O)[C@@H]2CCCN2C(=O)[C@@H](NC(=O)[C@@H](N)Cc2ccccc2)C(C)C)CCCCNC(=O)CC[C@@H](C(N)=O)NC1=O [compound 20] (H-FVPWFKKF[dL]GRIE-NH2; lactam 6-13) | >100 | >100 | >100 | >100 | 12.5 (≈ 20.6 µg/mL) | >100 | –
9 | CC[C@H](C)[C@H](NC(=O)[C@H](CCCNC(=N)N)NC(=O)[C@@H]1CCCCn2cc(nn2)C[C@H](NC(=O)[C@H](Cc2ccccc2)NC(=O)[C@H](Cc2c[nH]c3ccccc23)NC(=O)[C@@H]2CCCN2C(=O)[C@@H](NC(=O)[C@@H](N)Cc2ccccc2)C(C)C)C(=O)N[C@@H](CCCCN)C(=O)N[C@@H](Cc2ccccc2)C(=O)N[C@H](CC(C)C)C(=O)N1)C(=O)N[C@@H](CC(C)C)C(N)=O | – | – | – | – | – | – | 6
10 | CC[C@H](C)[C@H](NC(=O)[C@H](CCCNC(=N)N)NC(=O)CNC(=O)[C@@H](CC(C)C)NC(=O)[C@@H]1CCCCn2cc(nn2)C[C@H](NC(=O)[C@@H]2CCCN2C(=O)[C@@H](NC(=O)[C@@H](N)Cc2ccccc2)C(C)C)C(=O)N[C@@H](Cc2ccccc2)C(=O)N[C@@H](CO)C(=O)N[C@@H](CCCCN)C(=O)N1)C(=O)N[C@@H](CC(C)C)C(N)=O [compound 19] (H-FVP[Pra]FSK[Lys(N3)][dL]GRIL-NH2; triazole 4-8) | >100 | >100 | >100 | >100 | 12.5 (≈ 19.1 µg/mL) | >100 | –
11 | CC(C)C[C@H](NC(=O)[C@@H]1CCC(=O)NCCCC[C@H](NC(=O)[C@H](CCCCN)NC(=O)[C@H](CO)NC(=O)[C@H](Cc2ccccc2)NC(=O)[C@H](Cc2c[nH]c3ccccc23)NC(=O)[C@@H]2CCCN2C(=O)[C@@H](NC(=O)[C@@H](N)Cc2ccccc2)C(C)C)C(=O)N[C@H](CC(C)C)C(=O)NCC(=O)N[C@@H](CCCNC(=N)N)C(=O)N1)C(N)=O [compound 11] (H-FVPWFSKK[dL]GREL-NH2; lactam 8-12) | >100 | >100 | >100 | >100 | 50 (≈ 79.4 µg/mL) | >100 | –
12 | CC[C@H](C)[C@H](NC(=O)[C@H](CCCNC(=N)N)NC(=O)CNC(=O)[C@@H](CC(C)C)NC(=O)[C@@H]1CCC(=O)NCCCC[C@H](NC(=O)[C@@H]2CCCN2C(=O)[C@@H](NC(=O)[C@@H](N)Cc2ccccc2)C(C)C)C(=O)N[C@@H](Cc2ccccc2)C(=O)N[C@@H](CO)C(=O)N[C@@H](CCCCN)C(=O)N1)C(=O)N[C@@H](CC(C)C)C(N)=O [compound 14] (H-FVPKFSKE[dL]GRIL-NH2; lactam 4-8) | >100 | >100 | >100 | >100 | >100 | >100 | –
13 | CC(C)C[C@H](NC(=O)[C@@H]1CCC(=O)NCCCC[C@H](NC(=O)[C@H](Cc2c[nH]c3ccccc23)NC(=O)[C@@H]2CCCN2C(=O)[C@@H](NC(=O)[C@@H](N)Cc2ccccc2)C(C)C)C(=O)N[C@@H](CO)C(=O)N[C@@H](CCCCN)C(=O)N[C@@H](Cc2ccccc2)C(=O)N[C@H](CC(C)C)C(=O)NCC(=O)N[C@@H](CCCNC(=N)N)C(=O)N1)C(N)=O [compound 21] (H-FVPWKSKF[dL]GREL-NH2; lactam 5-12) | >100 | >100 | >100 | >100 | 100 (≈ 159 µg/mL) | >100 | –

Source: paper PMC8389922, “First-in-Class Cyclic Temporin L Analogue: Design, Synthesis, and Antimicrobial Assessment” (Journal of Medicinal Chemistry, 2021)
